Results published in ChEMBL document CHEMBL3991601, “The target landscape of clinical kinase drugs” (Science, 2017).
Activity calls are given as the source filed them.

What was measured:
[1] = biological target: T1, Cytochrome c1, heme protein, mitochondrial (Homo sapiens, UniProt P08574)
T1 sequence (P08574 whole entry): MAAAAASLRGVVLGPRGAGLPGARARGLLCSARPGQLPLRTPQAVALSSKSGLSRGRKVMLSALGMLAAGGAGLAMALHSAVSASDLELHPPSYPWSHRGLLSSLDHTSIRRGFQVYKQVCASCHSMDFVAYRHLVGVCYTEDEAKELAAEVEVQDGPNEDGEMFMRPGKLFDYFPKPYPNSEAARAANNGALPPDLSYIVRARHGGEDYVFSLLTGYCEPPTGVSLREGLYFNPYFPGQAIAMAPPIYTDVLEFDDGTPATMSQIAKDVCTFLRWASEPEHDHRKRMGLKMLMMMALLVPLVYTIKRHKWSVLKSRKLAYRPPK

[2] = biological target: T2, Ribosyldihydronicotinamide dehydrogenase [quinone] (Homo sapiens, UniProt P16083)
T2 sequence (P16083 whole entry): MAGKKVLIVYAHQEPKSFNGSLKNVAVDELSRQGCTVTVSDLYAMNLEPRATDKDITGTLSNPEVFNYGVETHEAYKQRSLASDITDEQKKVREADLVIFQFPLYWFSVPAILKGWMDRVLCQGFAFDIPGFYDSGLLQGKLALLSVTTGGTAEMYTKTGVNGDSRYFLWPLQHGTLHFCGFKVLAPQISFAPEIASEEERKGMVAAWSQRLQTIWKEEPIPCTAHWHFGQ

[3] = biological target: Interleukin-1 receptor-associated kinase 1 (Homo sapiens, UniProt P51617)
Sequence of Interleukin-1 receptor-associated kinase 1 (P51617 whole entry): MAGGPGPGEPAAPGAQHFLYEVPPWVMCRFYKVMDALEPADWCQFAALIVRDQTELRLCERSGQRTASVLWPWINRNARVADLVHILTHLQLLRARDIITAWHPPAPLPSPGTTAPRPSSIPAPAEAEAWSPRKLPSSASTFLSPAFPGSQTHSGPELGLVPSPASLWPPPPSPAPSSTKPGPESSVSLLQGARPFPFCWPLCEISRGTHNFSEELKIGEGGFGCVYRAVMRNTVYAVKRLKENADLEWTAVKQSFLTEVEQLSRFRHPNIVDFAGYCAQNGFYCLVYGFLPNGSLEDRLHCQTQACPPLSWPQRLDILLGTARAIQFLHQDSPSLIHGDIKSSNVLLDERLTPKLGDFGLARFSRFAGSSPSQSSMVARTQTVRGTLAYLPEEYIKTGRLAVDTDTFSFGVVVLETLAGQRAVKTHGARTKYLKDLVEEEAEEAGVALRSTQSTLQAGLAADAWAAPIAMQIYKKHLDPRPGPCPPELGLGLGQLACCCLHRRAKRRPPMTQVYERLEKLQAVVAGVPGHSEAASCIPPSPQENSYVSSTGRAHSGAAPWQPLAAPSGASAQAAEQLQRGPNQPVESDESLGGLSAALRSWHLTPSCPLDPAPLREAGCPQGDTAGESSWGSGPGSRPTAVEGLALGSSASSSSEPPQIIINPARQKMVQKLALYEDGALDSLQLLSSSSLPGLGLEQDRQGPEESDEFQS

[4] = biological target: Tyrosine-protein kinase Fer (Homo sapiens, UniProt P16591)
Sequence of Tyrosine-protein kinase Fer (P16591 whole entry): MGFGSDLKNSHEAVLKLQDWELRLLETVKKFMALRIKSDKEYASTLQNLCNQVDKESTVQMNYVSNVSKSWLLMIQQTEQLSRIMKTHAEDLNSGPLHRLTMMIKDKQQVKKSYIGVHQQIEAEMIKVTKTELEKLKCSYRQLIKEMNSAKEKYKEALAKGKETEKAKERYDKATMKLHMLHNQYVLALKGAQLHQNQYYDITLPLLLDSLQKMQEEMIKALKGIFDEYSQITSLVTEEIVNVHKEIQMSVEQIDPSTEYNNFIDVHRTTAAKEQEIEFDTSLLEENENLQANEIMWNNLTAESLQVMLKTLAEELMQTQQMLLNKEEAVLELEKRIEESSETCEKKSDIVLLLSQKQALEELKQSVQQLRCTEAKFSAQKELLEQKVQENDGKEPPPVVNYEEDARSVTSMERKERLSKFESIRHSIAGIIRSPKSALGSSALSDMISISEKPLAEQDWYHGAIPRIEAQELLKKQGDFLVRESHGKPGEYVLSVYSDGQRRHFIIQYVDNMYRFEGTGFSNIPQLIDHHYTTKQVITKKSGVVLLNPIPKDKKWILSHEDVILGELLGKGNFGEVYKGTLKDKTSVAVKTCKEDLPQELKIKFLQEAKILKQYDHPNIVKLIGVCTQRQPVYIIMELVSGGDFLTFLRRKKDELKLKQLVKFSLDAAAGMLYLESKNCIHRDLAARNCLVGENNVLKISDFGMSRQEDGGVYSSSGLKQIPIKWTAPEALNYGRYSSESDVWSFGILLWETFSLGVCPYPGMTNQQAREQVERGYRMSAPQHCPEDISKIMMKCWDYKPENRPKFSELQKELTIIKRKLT

[5] = biological target: RAC-alpha serine/threonine-protein kinase (Homo sapiens, UniProt P31749)
Sequence of RAC-alpha serine/threonine-protein kinase (P31749 whole entry): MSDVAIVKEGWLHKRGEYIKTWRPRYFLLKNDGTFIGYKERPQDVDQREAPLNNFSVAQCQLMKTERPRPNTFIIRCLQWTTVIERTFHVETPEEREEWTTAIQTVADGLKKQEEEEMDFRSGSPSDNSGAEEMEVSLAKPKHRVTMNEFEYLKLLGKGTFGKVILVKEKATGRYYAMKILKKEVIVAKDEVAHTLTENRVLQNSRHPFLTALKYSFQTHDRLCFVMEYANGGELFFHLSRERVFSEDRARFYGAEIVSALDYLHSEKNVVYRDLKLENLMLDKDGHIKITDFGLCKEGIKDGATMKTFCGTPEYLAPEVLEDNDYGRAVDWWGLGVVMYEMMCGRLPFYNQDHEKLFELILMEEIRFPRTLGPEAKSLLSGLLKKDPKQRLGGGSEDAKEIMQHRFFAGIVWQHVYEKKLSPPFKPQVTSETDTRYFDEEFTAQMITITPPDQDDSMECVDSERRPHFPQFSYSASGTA

[6] = biological target: T3, Aurora kinase A (Homo sapiens, UniProt O14965)
T3 sequence (O14965 whole entry): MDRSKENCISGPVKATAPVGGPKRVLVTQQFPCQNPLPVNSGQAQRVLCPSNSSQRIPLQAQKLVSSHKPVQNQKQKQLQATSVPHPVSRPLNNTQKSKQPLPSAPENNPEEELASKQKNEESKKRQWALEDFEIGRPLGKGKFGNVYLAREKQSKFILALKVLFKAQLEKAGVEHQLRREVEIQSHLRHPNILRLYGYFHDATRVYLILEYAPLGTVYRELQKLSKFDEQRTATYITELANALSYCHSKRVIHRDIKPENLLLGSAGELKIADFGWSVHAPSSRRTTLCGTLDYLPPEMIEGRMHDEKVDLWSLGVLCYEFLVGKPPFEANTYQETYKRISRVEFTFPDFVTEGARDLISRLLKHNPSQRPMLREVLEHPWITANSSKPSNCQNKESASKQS

[7] = biological target: T4, Mitogen-activated protein kinase kinase kinase 3 (Homo sapiens, UniProt Q99759)
T4 sequence (Q99759 whole entry): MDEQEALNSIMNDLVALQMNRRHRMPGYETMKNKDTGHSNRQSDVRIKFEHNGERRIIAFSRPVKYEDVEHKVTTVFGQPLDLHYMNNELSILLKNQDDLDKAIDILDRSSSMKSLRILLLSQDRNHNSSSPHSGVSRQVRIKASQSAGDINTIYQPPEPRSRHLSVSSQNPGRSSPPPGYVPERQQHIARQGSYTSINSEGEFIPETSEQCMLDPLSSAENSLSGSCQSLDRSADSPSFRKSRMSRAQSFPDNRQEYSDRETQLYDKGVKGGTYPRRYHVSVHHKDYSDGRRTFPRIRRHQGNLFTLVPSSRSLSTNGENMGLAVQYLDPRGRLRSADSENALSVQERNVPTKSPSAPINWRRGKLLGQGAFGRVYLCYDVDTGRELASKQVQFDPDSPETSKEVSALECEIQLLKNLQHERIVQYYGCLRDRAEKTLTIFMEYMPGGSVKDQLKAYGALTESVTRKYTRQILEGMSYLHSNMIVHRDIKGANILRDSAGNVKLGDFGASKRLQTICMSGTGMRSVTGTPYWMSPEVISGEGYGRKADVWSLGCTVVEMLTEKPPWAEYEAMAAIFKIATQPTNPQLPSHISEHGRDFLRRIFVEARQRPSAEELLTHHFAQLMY

[8] = biological target: Deoxycytidine kinase (Homo sapiens, UniProt P27707)
Sequence of Deoxycytidine kinase (P27707 whole entry): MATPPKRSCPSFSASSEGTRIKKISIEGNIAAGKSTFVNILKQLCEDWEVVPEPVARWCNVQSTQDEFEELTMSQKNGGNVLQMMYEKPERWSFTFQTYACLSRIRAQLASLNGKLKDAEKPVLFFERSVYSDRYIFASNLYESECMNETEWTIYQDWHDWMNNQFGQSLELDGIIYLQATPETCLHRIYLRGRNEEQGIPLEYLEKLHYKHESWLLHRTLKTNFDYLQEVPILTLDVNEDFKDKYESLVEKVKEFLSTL

[9] = biological target: Cyclin-dependent kinase 4 (Homo sapiens, UniProt P11802)
Sequence of Cyclin-dependent kinase 4 (P11802 whole entry): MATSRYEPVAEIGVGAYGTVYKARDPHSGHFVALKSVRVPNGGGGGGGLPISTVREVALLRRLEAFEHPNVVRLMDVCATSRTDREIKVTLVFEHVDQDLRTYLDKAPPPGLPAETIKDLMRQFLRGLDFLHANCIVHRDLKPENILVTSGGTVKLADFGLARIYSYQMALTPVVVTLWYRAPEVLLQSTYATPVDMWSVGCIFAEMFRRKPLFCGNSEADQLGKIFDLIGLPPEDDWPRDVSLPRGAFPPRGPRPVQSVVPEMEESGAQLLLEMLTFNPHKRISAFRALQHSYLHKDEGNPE

[10] = biological target: T5, Acyl-CoA dehydrogenase family member 10 (Homo sapiens, UniProt Q6JQN1)
T5 sequence (Q6JQN1 whole entry): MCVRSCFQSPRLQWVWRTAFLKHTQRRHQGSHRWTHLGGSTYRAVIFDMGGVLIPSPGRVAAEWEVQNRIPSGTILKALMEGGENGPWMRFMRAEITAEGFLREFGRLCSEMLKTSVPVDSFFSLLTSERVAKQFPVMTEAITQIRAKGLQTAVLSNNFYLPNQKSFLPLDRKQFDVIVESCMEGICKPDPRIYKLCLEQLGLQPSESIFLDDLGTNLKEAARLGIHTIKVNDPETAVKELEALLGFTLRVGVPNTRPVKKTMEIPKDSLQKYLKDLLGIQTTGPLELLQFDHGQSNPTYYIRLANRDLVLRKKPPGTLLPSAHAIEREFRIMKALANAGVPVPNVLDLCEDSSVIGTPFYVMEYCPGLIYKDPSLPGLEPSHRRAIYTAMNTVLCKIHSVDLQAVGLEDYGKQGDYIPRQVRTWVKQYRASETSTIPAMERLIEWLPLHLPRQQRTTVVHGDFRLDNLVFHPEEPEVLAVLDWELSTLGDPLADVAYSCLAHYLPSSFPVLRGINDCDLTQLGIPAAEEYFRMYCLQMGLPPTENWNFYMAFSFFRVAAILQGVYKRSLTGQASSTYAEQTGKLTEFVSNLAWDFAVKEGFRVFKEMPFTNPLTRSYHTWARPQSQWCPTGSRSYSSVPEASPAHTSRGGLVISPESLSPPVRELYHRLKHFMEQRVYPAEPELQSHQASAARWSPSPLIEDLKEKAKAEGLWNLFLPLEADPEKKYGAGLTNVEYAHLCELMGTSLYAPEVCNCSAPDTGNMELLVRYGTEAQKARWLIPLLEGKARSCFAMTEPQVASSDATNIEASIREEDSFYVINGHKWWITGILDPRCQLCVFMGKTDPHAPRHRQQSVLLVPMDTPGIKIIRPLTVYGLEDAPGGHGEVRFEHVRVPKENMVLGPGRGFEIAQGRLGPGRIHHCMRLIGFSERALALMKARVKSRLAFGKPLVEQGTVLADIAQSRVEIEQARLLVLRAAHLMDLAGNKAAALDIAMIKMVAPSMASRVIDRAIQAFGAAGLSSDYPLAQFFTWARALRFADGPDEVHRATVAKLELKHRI
Further: in the data inactive means no Kd found up to 30 µM.

## CNC(=O)c1cc(COc2nnc(Nc3ccc(Cl)cc3)c3ccoc23)ccn1 [TELATINIB]
[1]
  Kd: > 30 µM (inactive)
[2]
  Kd: > 30 µM (inactive)
[3]
  Kd: > 30 µM (inactive)
[4]
  Kd: > 30 µM (inactive)
[5]
  Kd: > 30 µM (inactive)
[6]
  Kd: > 30 µM (inactive)
[7]
  Kd: > 30 µM (inactive)
[8]
  Kd: > 30 µM (inactive)
[9]
  Kd: > 30 µM (inactive)
[10]
  Kd: > 30 µM (inactive)

## Cn1c(=O)c(F)c(Nc2ccc(I)cc2F)c2c(=O)n(C[C@@H](O)CO)cnc21 [TAK-733]
[1]
  Kd: > 30 µM (inactive)
[2]
  Kd: > 30 µM (inactive)
[3]
  Kd: > 30 µM (inactive)
[4]
  Kd: > 30 µM (inactive)
[5]
  Kd: > 30 µM (inactive)
[6]
  Kd: > 30 µM (inactive)
[7]
  Kd: > 30 µM (inactive)
[8]
  Kd: > 30 µM (inactive)
[9]
  Kd: > 30 µM (inactive)
[10]
  Kd: > 30 µM (inactive)

## CC[C@@](C)(Nc1ccnc(-c2c[nH]c3ncccc23)n1)C(=O)NCC(F)(F)F [DECERNOTINIB]
[1]
  Kd: > 30 µM (inactive)
[2]
  Kd: > 30 µM (inactive)
[3]
  Kd: > 30 µM (inactive)
[4]
  Kd: > 30 µM (inactive)
[5]
  Kd: > 30 µM (inactive)
[6]
  Kd: > 30 µM (inactive)
[7]
  Kd: > 30 µM (inactive)
[8]
  Kd: > 30 µM (inactive)
[9]
  Kd: > 30 µM (inactive)
[10]
  Kd: > 30 µM (inactive)

## Cc1cc(-c2cc(OC(=O)c3ccccc3)ccc2Cl)cc2nnc(Nc3ccc(OCCN4CCCC4)cc3)nc12 [TG100-801]
[1]
  Kd: > 30 µM (inactive)
[2]
  Kd: > 30 µM (inactive)
[3]
  Kd: > 30 µM (inactive)
[4]
  Kd: > 30 µM (inactive)
[5]
  Kd: > 30 µM (inactive)
[6]
  Kd: > 30 µM (inactive)
[7]
  Kd: > 30 µM (inactive)
[8]
  Kd: > 30 µM (inactive)
[9]
  Kd: > 30 µM (inactive)
[10]
  Kd: > 30 µM (inactive)

## O=C(NOC[C@H](O)CO)c1ccc(F)c(F)c1Nc1ccc(I)cc1F [MIRDAMETINIB]
[1]
  Kd: > 30 µM (inactive)
[2]
  Kd: > 30 µM (inactive)
[3]
  Kd: > 30 µM (inactive)
[4]
  Kd: > 30 µM (inactive)
[5]
  Kd: > 30 µM (inactive)
[6]
  Kd: > 30 µM (inactive)
[7]
  Kd: > 30 µM (inactive)
[8]
  Kd: > 30 µM (inactive)
[9]
  Kd: > 30 µM (inactive)
[10]
  Kd: > 30 µM (inactive)

## N#CCNC(=O)c1ccc(-c2ccnc(Nc3ccc(N4CCOCC4)cc3)n2)cc1 [MOMELOTINIB]
[1]
  Kd: > 30 µM (inactive)
[2]
  Kd: > 30 µM (inactive)
[3]
  Kd: > 30 µM (inactive)
[4]
  Kd: > 30 µM (inactive)
[5]
  Kd: > 30 µM (inactive)
[6]
  Kd: > 30 µM (inactive)
[7]
  Kd: > 30 µM (inactive)
[8]
  Kd: > 30 µM (inactive)
[9]
  Kd: > 30 µM (inactive)
[10]
  Kd: > 30 µM (inactive)

## Cc1cc(C(=O)Nc2cc(Oc3ccc4nc(NC(=O)C5CC5)cn4n3)ccc2C)n(C)n1 [TAK-593]
[1]
  Kd: > 30 µM (inactive)
[2]
  Kd: > 30 µM (inactive)
[3]
  Kd: > 30 µM (inactive)
[4]
  Kd: > 30 µM (inactive)
[5]
  Kd: > 30 µM (inactive)
[6]
  Kd: > 30 µM (inactive)
[7]
  Kd: > 30 µM (inactive)
[8]
  Kd: > 30 µM (inactive)
[9]
  Kd: > 30 µM (inactive)
[10]
  Kd: > 30 µM (inactive)

## NC[C@@](O)(c1ccc(Cl)cc1)c1ccc(-c2cn[nH]c2)cc1 [AT-13148]
[1]
  Kd: > 30 µM (inactive)
[2]
  Kd: > 30 µM (inactive)
[3]
  Kd: > 30 µM (inactive)
[4]
  Kd: > 30 µM (inactive)
[5]
  Kd: > 30 µM (inactive)
[6]
  Kd: > 30 µM (inactive)
[7]
  Kd: > 30 µM (inactive)
[8]
  Kd: > 30 µM (inactive)
[9]
  Kd: > 30 µM (inactive)
[10]
  Kd: > 30 µM (inactive)

## Cc1c(NC(=O)OC[C@@H]2COCCN2)cn2ncnc(Nc3ccc4c(cnn4Cc4cccc(F)c4)c3)c12 [AC-480]
[1]
  Kd: > 30 µM (inactive)
[2]
  Kd: > 30 µM (inactive)
[3]
  Kd: > 30 µM (inactive)
[4]
  Kd: > 30 µM (inactive)
[5]
  Kd: > 30 µM (inactive)
[6]
  Kd: > 30 µM (inactive)
[7]
  Kd: > 30 µM (inactive)
[8]
  Kd: > 30 µM (inactive)
[9]
  Kd: > 30 µM (inactive)
[10]
  Kd: > 30 µM (inactive)

## C=CCN(/C=C1/C(=O)O[C@H](COC)[C@@]2(C)C1=C(O)C(=O)C1=C2[C@H](OC(C)=O)C[C@]2(C)C(=O)CC[C@@H]12)CC=C [SONOLISIB]
[1]
  Kd: > 30 µM (inactive)
[2]
  Kd: > 30 µM (inactive)
[3]
  Kd: > 30 µM (inactive)
[4]
  Kd: > 30 µM (inactive)
[5]
  Kd: > 30 µM (inactive)
[6]
  Kd: > 30 µM (inactive)
[7]
  Kd: > 30 µM (inactive)
[8]
  Kd: > 30 µM (inactive)
[9]
  Kd: > 30 µM (inactive)
[10]
  Kd: > 30 µM (inactive)

## COc1cc(Nc2ncc(F)c(Nc3ccc4c(n3)N(COP(=O)(O)O)C(=O)C(C)(C)O4)n2)cc(OC)c1OC [FOSTAMATINIB]
[1]
  Kd: > 30 µM (inactive)
[2]
  Kd: > 30 µM (inactive)
[3]
  Kd: > 30 µM (inactive)
[4]
  Kd: > 30 µM (inactive)
[5]
  Kd: > 30 µM (inactive)
[6]
  Kd: 0.3 µM (active)
[7]
  Kd: > 30 µM (inactive)
[8]
  Kd: > 30 µM (inactive)
[9]
  Kd: > 30 µM (inactive)
[10]
  Kd: > 30 µM (inactive)

## COCCN1CCN(Cc2ccc(-c3n[nH]c4c3C(=O)c3c(NC(=O)NN5CCOCC5)cccc3-4)cc2)CC1 [RGB-286638]
[1]
  Kd: > 30 µM (inactive)
[2]
  Kd: > 30 µM (inactive)
[3]
  Kd: > 30 µM (inactive)
[4]
  Kd: > 30 µM (inactive)
[5]
  Kd: > 30 µM (inactive)
[6]
  Kd: > 30 µM (inactive)
[7]
  Kd: > 30 µM (inactive)
[8]
  Kd: > 30 µM (inactive)
[9]
  Kd: > 30 µM (inactive)
[10]
  Kd: > 30 µM (inactive)

## CNC(=O)c1ccc(Nc2ncc(C(F)(F)F)c(NCc3nccnc3N(C)S(C)(=O)=O)n2)cc1 [DEFACTINIB]
[1]
  Kd: > 30 µM (inactive)
[2]
  Kd: > 30 µM (inactive)
[3]
  Kd: > 30 µM (inactive)
[4]
  Kd: 1.3 µM (active)
[5]
  Kd: > 30 µM (inactive)
[6]
  Kd: 0.622 µM (active)
[7]
  Kd: > 30 µM (inactive)
[8]
  Kd: > 30 µM (inactive)
[9]
  Kd: > 30 µM (inactive)
[10]
  Kd: > 30 µM (inactive)
